Assay results reported in DBAASP.
Values after ≈ are worked out from the molar mass of the structure shown. One block for each compound: values may come before it.

Columns and labels:
Test in all cases: ≥ marks a high value that may be exact or a test limit, other limits are often not marked, values filed in µg/mL are converted to µM
[1] = system: Candida albicans ATCC 90028
[2] = system: Candida parapsilosis ATCC 22019
[3] = system: Enterococcus faecium ATCC 19434
[4] = system: Escherichia coli O157:H7 ATCC 43895
Pseudomonas aeruginosa 1 = system: Pseudomonas aeruginosa 1
Pseudomonas aeruginosa 2 = system: Pseudomonas aeruginosa 2
[5] = system: Pseudomonas aeruginosa ATCC 27853
[6] = system: Salmonella typhimurium ATCC 19430
[7] = system: Staphylococcus aureus ATCC 25923
Staphylococcus aureus = system: Staphylococcus aureus
[8] = system: Trichophyton rubrum KCTC 6345
[9] = system: Trichosporon beigelii KCTC 7707
[10] = system: Enterococcus faecalis ATCC 29212
[11] = system: Escherichia coli ATCC 32218
[12] = system: Staphylococcus aureus ATCC 29213
Escherichia coli AB94012 = system: Escherichia coli AB94012
[13] = system: Escherichia coli ATCC 25922
[14] = system: Pseudomonas aeruginosa AB93066
[15] = system: Pseudomonas aeruginosa ATCC 9027
[16] = system: Staphylococcus aureus AB94004
[17] = system: Staphylococcus aureus ATCC 6538
[18] = system: Staphylococcus aureus P1374
[19] = system: Staphylococcus aureus P1381
[20] = system: Candida albicans KCCM 11282
Edwardsiella tarda = system: Edwardsiella tarda
Escherichia coli = system: Escherichia coli
Miamiensis avidus = system: Miamiensis avidus
[21] = system: Saccharomyces cerevisiae KCCM 11293
Streptococcus iniae = system: Streptococcus iniae
[22] = system: Vibrio tapetis KCTC 12728
[23] = system: Escherichia coli ATCC 8739
[24] = system: Trichophyton mentagrophytes
Trichophyton rubrum = system: Trichophyton rubrum
[25] = system: Bacillus subtilis CCT 2576
[26] = system: Pseudomonas aeruginosa ATCC 15422
[27] = system: Acinetobacter baumannii ATCC 19606
[28] = system: Acinetobacter baumannii ATCC BAA-1605
[29] = system: Enterococcus faecium ATCC 700221
[30] = system: Klebsiella aerogenes ATCC 13048
[31] = system: Klebsiella pneumoniae ATCC 13883
[32] = system: Klebsiella pneumoniae ATCC 700603
[33] = system: Staphylococcus aureus ATCC 12598
[34] = system: Staphylococcus aureus ATCC 33591
[35] = system: Staphylococcus aureus ATCC 9144
[36] = system: Staphylococcus epidermidis ATCC 12228

MIC [1]: 6.3 µM (≈ 11.2 µg/mL)
MIC [2]: 12.5 µM (≈ 22.3 µg/mL)
MIC [3]: 12.5 µM (≈ 22.3 µg/mL)
MIC [4]: 6.3 µM (≈ 11.2 µg/mL)
MIC (Pseudomonas aeruginosa 1): 6.3 µM (≈ 11.2 µg/mL)
MIC (Pseudomonas aeruginosa 2): 12.5 µM (≈ 22.3 µg/mL)
MIC [5]: 12.5 µM (≈ 22.3 µg/mL)
MIC [6]: 12.5 µM (≈ 22.3 µg/mL)
MIC [7]: 25 µM (≈ 44.5 µg/mL)
MIC (Staphylococcus aureus): 12.5 µM (≈ 22.3 µg/mL)
MIC [8]: 6.3 µM (≈ 11.2 µg/mL)
MIC [9]: 6.3 µM (≈ 11.2 µg/mL)
SMILES: CC[C@H](C)[C@H](NC(=O)[C@H](CCCN=C(N)N)NC(=O)CNC(=O)[C@@H](NC(=O)[C@@H]1CCCN1C(=O)[C@H](Cc1ccccc1)NC(=O)[C@H](CCC(N)=O)NC(=O)[C@H](CC(C)C)NC(=O)CNC(=O)[C@H](C)N)C(C)C)C(=O)NCC(=O)N[C@@H](CCCN=C(N)N)C(=O)N[C@@H](CC(C)C)C(=O)N[C@@H](CC(C)C)C(=O)N[C@@H](CCCN=C(N)N)C(=O)N[C@@H](CCCCN)C(=O)O [AGLQFPVGRIGRLLRK]

MIC [10]: 1.19 µM (≈ 2 µg/mL)
MIC [11]: ≥ 35.6 µM
MIC [12]: 0.594 µM (≈ 1 µg/mL)
SMILES: CC(C)C[C@H](NC(=O)[C@H](C)N)C(=O)N[C@@H](CCCCN)C(=O)N[C@@H](Cc1ccc(O)cc1)C(=O)N[C@@H](CCCN=C(N)N)C(=O)N[C@@H](CC(C)C)C(=O)N[C@@H](Cc1ccccc1)C(=O)N[C@@H](CCCCN)C(=O)N[C@@H](CCCCN)C(=O)N[C@@H](CC(C)C)C(=O)N[C@@H](CCCCN)C(=O)N[C@@H](CCCCN)C(=O)N[C@@H](Cc1ccccc1)C(=O)O [ALKYRLFKKLKKF]

MIC (Escherichia coli AB94012): 15.3 µM (≈ 25 µg/mL)
MIC [13]: 30.6 µM (≈ 50 µg/mL)
MIC [14]: 30.6 µM (≈ 50 µg/mL)
MIC [15]: 30.6 µM (≈ 50 µg/mL)
MIC [16]: 3.82 µM (≈ 6.25 µg/mL)
MIC [7]: 3.82 µM (≈ 6.25 µg/mL)
MIC [17]: 3.82 µM (≈ 6.25 µg/mL)
MIC [18]: 7.64 µM (≈ 12.5 µg/mL)
MIC [19]: 7.64 µM (≈ 12.5 µg/mL)
SMILES: CC[C@H](C)[C@H](NC(=O)[C@H](CO)NC(=O)[C@H](CCCCN)NC(=O)[C@@H](NC(=O)CNC(=O)[C@H](CCCCN)NC(=O)[C@H](Cc1c[nH]c2ccccc12)NC(=O)[C@H](CC(C)C)NC(=O)[C@H](CCCCN)NC(=O)CNC(=O)[C@H](CC(C)C)NC(=O)[C@@H](NC(=O)[C@@H](N)Cc1ccccc1)[C@@H](C)CC)C(C)C)C(=O)N[C@@H](Cc1ccccc1)C(N)=O [FILGKLWKGVKSIF]

MIC [20]: 22.5 µM (≈ 58 µg/mL)
MIC (Edwardsiella tarda): ≥ 90 µM
MIC (Escherichia coli): 45 µM (≈ 116 µg/mL)
MIC (Miamiensis avidus): 0.4 µM (≈ 1.03 µg/mL)
MIC [21]: 11.2 µM (≈ 29 µg/mL)
MIC (Streptococcus iniae): ≥ 45 µM
MIC [22]: 22.5 µM (≈ 58 µg/mL)
SMILES: CC[C@H](C)[C@H](NC(=O)[C@H](C)NC(=O)[C@H](Cc1cnc[nH]1)NC(=O)CNC(=O)[C@@H](NC(=O)CNC(=O)[C@H](Cc1cnc[nH]1)NC(=O)[C@H](CC(C)C)NC(=O)[C@H](CC(C)C)NC(=O)[C@H](CCSC)NC(=O)CNC(=O)[C@H](CC(C)C)NC(=O)[C@@H](N)Cc1ccccc1)C(C)C)C(=O)N[C@@H](Cc1cnc[nH]1)C(=O)NCC(=O)N[C@@H](CC(C)C)C(=O)N[C@H](C(=O)N[C@@H](Cc1cnc[nH]1)C(=O)NCC(=O)N[C@@H](CCCCN)C(=O)N[C@@H](CCC(N)=O)C(=O)N[C@@H](CC(N)=O)C(=O)N[C@H](C(=O)N[C@@H](CCC(=O)O)C(=O)O)C(C)C)[C@@H](C)CC [FLGMLLHGVGHAIHGLIHGKQNVE]

MIC [2]: ≥ 115 µM
MIC [23]: 30 µM (≈ 66.4 µg/mL)
MIC [7]: > 115 µM
MIC [24]: ≥ 115 µM
MIC (Trichophyton rubrum): ≥ 115 µM
SMILES: CSCC[C@H](NC(=O)[C@H](CO)NC(=O)[C@H](C)NC(=O)[C@H](C)NC(=O)[C@H](C)NC(=O)[C@H](C)NC(=O)[C@H](C)NC(=O)[C@H](C)NC(=O)[C@H](C)NC(=O)[C@H](CC(N)=O)NC(=O)[C@H](C)NC(=O)[C@H](C)NC(=O)[C@@H](NC(=O)[C@H](CC(C)C)NC(=O)[C@H](C)NC(=O)[C@H](C)NC(=O)[C@H](C)NC(=O)[C@H](C)NC(=O)[C@H](C)NC(=O)[C@H](C)NC(=O)[C@H](CC(=O)O)NC(=O)[C@H](CO)NC(=O)[C@H](C)NC(=O)[C@@H](NC(=O)[C@@H](N)Cc1cnc[nH]1)[C@@H](C)O)[C@@H](C)O)C(=O)N[C@@H](C)C(=O)O [HTASDAAAAAALTAANAAAAAAASMA]

MIC [25]: 2.16 µM (≈ 3.5 µg/mL)
MIC [13]: 2.41 µM (≈ 3.9 µg/mL)
MIC [26]: 9.64 µM (≈ 15.6 µg/mL)
MIC [17]: 1.79 µM (≈ 2.9 µg/mL)
SMILES: CC[C@H](C)[C@H](N)C(=O)N[C@@H](CC(N)=O)C(=O)N[C@@H](Cc1c[nH]c2ccccc12)C(=O)N[C@@H](CCCCN)C(=O)N[C@@H](CCCCN)C(=O)N[C@@H](CCSC)C(=O)N[C@@H](C)C(=O)N[C@@H](C)C(=O)N[C@H](C(=O)N[C@@H](C)C(=O)N[C@@H](CC(C)C)C(=O)N[C@@H](CCCCN)C(=O)N[C@@H](CCSC)C(=O)N[C@H](C(N)=O)[C@@H](C)CC)[C@@H](C)O [INWKKMAATALKMI]

MIC [27]: ≥ 163 µM
MIC [28]: ≥ 163 µM
MIC [10]: ≥ 81.4 µM
MIC [29]: 10.2 µM (≈ 16.4 µg/mL)
MIC [30]: ≥ 163 µM
MIC [31]: ≥ 163 µM
MIC [32]: 163 µM (≈ 263 µg/mL)
MIC [15]: 40.7 µM (≈ 65.7 µg/mL)
MIC [33]: ≥ 163 µM
MIC [34]: ≥ 163 µM
MIC [17]: 163 µM (≈ 263 µg/mL)
MIC [35]: ≥ 163 µM
MIC [36]: ≥ 163 µM
SMILES: CC[C@H](C)[C@H](NC(=O)[C@H](CCCN=C(N)N)NC(=O)[C@H](CCC(N)=O)NC(=O)[C@@H](NC(=O)[C@@H](NC(=O)[C@H](CCCN=C(N)N)NC(=O)[C@H](CCCCN)NC(C)=O)[C@@H](C)CC)C(C)C)C(=O)N[C@@H](CCCCN)C(=O)N[C@@H](CC(=O)O)C(=O)N[C@@H](Cc1ccccc1)C(=O)N[C@@H](CC(C)C)C(=O)N[C@@H](CCCN=C(N)N)C(N)=O [KRIVQRIKDFLR]
